Laboratory results from PMC8658787, “Screening of Potential Thrombin and Factor Xa Inhibitors from the Danshen–Chuanxiong Herbal Pair through a Spectrum–Effect Relationship Analysis” (Molecules, 2021).

What follows are compounds tested against T1, thrombin (THR) (Homo sapiens, UniProt P00734) (assay: THR inhibitory activity assay (chromogenic substrate S-2238, absorbance at 405 nm)). Conditions: in vitro enzymatic activity assay.
T1 construct: purchased Sigma-Aldrich
Type: biochemical
Description: (§1) A stock solution of THR (125 U/mL) was prepared by dissolving 4.16 mg of THR in 1.0 mL of PBS. A stock solution of FXa (0.5 IU/mL) was prepared by dissolving 5.0 mg of FXa in 1.0 mL of PBS. Stock solutions of S-2238 (2 mg/mL) and S-2765 (2.5 mg/mL) were prepared in PBS. The DC extract samples (10 mg/mL) were prepared in a PBS buffer and diluted to 5.0 and 2.5 mg/mL as necessary.
(§2) THR and FXa inhibitory activity assays were performed with an iMark™ Microplate Absorbance Reader (Bio-Rad Laboratories, Inc., Hercules, CA, USA). A DC extract solution of 50 μL and a 50 μL THR solution were mixed and incubated for 10 min at 37 °C. Subsequently, a 100 μL S-2238 (2 mg/mL) solution as the chromogenic substrate was added to start the reaction in the microplate reader. The absorbance was monitored at 405 nm every 30 s for 10 min, and each group was measured three times. […] Except for the enzyme solution and chromogenic substrate, the procedure for assessing the FXa inhibitory activity was exactly the same as for THR. The inhibition rate (%) of THR and FXa was calculated using Formula (1). (1) I(%)=[(dA/dt)blank−(dA/dt)sample]/(dA/dt)blank where I(%) represents the % of inhibition, and (dA/dt)blank and (dA/dt)sample represent the reaction rate of the control and experimental group, respectively. The results were expressed as the mean ± standard deviation (SD) of three experiments.
Compound `O=C(/C=C/c1ccc(O)c(O)c1)O[C@@H]1C[C@](O)(C(=O)O)C[C@@H](O)[C@H]1O` [Chlorogenic acid] has an IC50 of 185 µM. `CCC/C=C1\OC(=O)C2=C1CCC=C2` [Z-ligustilide] showed an IC50 of 1460 µM.

The compounds below were run against factor Xa (FXa) (Homo sapiens, UniProt P00742) (assay: FXa inhibitory activity assay (chromogenic substrate S-2765, absorbance at 405 nm)). Conditions: in vitro enzymatic activity assay.
Chain of factor Xa (FXa) (P00742 235-488 limits assumed): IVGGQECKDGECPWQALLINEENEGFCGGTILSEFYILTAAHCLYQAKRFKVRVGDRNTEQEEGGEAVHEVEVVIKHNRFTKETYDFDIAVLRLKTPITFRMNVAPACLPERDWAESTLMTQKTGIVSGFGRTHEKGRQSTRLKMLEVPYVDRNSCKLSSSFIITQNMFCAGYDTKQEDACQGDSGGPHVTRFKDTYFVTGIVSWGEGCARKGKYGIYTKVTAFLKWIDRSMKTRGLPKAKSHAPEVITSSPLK
Chain of factor Xa (FXa) (P00742 41-179 partner limits assumed): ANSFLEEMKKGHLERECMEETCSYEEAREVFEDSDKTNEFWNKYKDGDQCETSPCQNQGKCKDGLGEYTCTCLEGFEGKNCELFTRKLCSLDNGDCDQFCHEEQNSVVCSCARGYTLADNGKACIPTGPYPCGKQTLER
Type: biochemical
Description: as §1, §2
Work on `O=C(O)/C=C/c1ccc(O)c(O)c1` [Caffeic acid] yielded an IC50 of 3790 µM. In the case of `COc1cc(/C=C/C(=O)O)ccc1O` [Ferulic acid], the IC50 is reported as 2490 µM. `Cc1coc2c1C(=O)C(=O)c1c-2ccc2c1CCCC2(C)C` [Tanshinone IIA] was tested, and the IC50 was 138 µM. In the case of `Cc1coc2c1C(=O)C(=O)c1c-2ccc2c(C)cccc12` [Tanshinone I], the IC50 is reported as 113 µM.
